This note sets out measurements from patent publication US20260138976A1 (Hoffmann-La Roche Inc., priority 2022, published 2026).

The subject of test [1] is primary human T-cells. In words: IL2 secretion measurements (24 h, CD3-stimulated T-cells, PBS counter screen). In kind it is cell-based. The conditions noted are these: for Emax IL2 (% activation): CD3 condition, normalised to DMSO (neutral) and 20 μM reference compound A1 = 100%; for pEC50: Homo sapiens, T-cell, CD3-stimulated primary human T-cells, IL2 secretion, fitted sigmoidal curve, read-out: Tcell IL2 CD3 EC50. A digest of the protocol:
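Expanded primary human T-cells (100k/well) were plated on anti-CD3-coated or PBS-only plates with compound in a 5–6 point dose response (top 20 or 10 μM final, 3.333-fold, 0.2% DMSO). IL-2 in 24 h supernatants was quantified by ProQuantum immunoassay or ELISA. Values were normalized to DMSO and 20 μM reference compound A1 (100%), giving EC50 and Emax.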

Test [2] has as its system primary human T-cells. In words: Proliferation assay (5 days, CellTiter-Glo, CD3-stimulated T-cells). In kind it is cell-based. To be noted: for Emax proliferation (% activation): CD3 condition, normalised to DMSO (neutral) and 20 μM reference compound A1 = 100%; for pEC50: Homo sapiens, T-cell, 120 h, CD3-stimulated primary human T-cells, 5 days, CellTiter-Glo, fitted sigmoidal curve, read-out: Tcell Proliferation CD3 EC50. A digest of the protocol: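 Expanded primary human T-cells, 100 k cells/well, were stimulated with plate-coated CD3 antibody (donor-titrated) and given compound in a 5 or 6 pt dose response from 20 μM or 10 μM final top, 0.2% DMSO final. ATP was read by CellTiter-Glo after 5 days. EC50 and Emax were reported as % of 20 μM reference compound A1.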
For orientation: Cellular ATP, detected with luciferase, serves as a proxy for viable cell number.

Structures are written as SMILES. pEC50: −log10 of the molar value.

As to `N[C@H]1CS(=O)(=O)c2ccc(-c3noc(C4(N)COC4)n3)cc2N(Cc2ccc(-c3noc(C(F)(F)F)n3)cc2)C1=O` [Example 84, (3R)-3-amino-7-[5-(3-aminooxetan-3-yl)-1,2,4-oxadiazol-3-yl]-1,1-dioxo-5-[[4-[5-(trifluoromethyl)-1,2,4-oxadiazol-3-yl]phenyl]methyl]-2,3-dihydro-1lambda6,5-benzothiazepin-4-one], in the test on primary human T-cells [1], the “Emax IL2 (% activation)” value is 33 % activation and the pEC50 was less than 5.00. Besides, in the test on primary human T-cells [2], the “Emax proliferation (% activation)” value amounted to 151 % activation and the pEC50 is 5.76.
The like results for `CC(C)(C#N)c1nnc(-c2ccc3c(c2)N(Cc2ccc(-n4ccc(C(F)(F)F)n4)cc2)C(=O)[C@@H](N)CS3(=O)=O)o1` [Example 121, 2-[5-[(3R)-3-amino-1,1,4-trioxo-5-[[4-[3-(trifluoromethyl)pyrazol-1-yl]phenyl]methyl]-2,3-dihydro-1λ^6,5-benzothiazepin-7-yl]-1,3,4-oxadiazol-2-yl]-2-methyl-propanenitrile] were, in that order, 207 % activation, 6.14, 160 % activation and 5.96.
The like results for `CC(C)(C)c1nc(-c2cc3c(cc2F)S(=O)(=O)C[C@H](N)C(=O)N3Cc2ccc(-c3ccc(CO)cc3)nc2)no1` [Example 7, (3R)-3-amino-7-(5-tert-butyl-1,2,4-oxadiazol-3-yl)-8-fluoro-5-[[6-[4-(hydroxymethyl)phenyl]-3-pyridyl]methyl]-1,1-dioxo-2,3-dihydro-1λ^6,5-benzothiazepin-4-one] were, in that order, 38 % activation, less than 5.00, 97 % activation and 5.45.
Consider `CC(C)(C)c1nnc(-c2ccc3c(c2)N(Cc2ccc(-n4ccc(C(F)(F)F)n4)cc2)C(=O)[C@@H](N)CS3(=O)=O)o1` [Example 27], for which, in the test with primary human T-cells [1], the “Emax IL2 (% activation)” value came out at 160 % activation and the pEC50 is 6.32. Moreover, in the test on primary human T-cells [2], the “Emax proliferation (% activation)” value came out at 212 % activation and the pEC50 was 6.60.
On to `CC(C)Nc1nnc(-c2cc3c(cc2F)S(=O)(=O)C[C@H](N)C(=O)N3Cc2ccc(-c3noc(C(F)(F)F)n3)cc2)o1` [Example 6, (3R)-3-amino-8-fluoro-7-[5-(isopropylamino)-1,3,4-oxadiazol-2-yl]-1,1-dioxo-5-[[4-[5-(trifluoromethyl)-1,2,4-oxadiazol-3-yl]phenyl]methyl]-2,3-dihydro-1λ^6,5-benzothiazepin-4-one], for which, in the test with primary human T-cells [1], the “Emax IL2 (% activation)” value is given as 212 % activation and the pEC50 was 5.93. For the same compound, in the test on primary human T-cells [2], the “Emax proliferation (% activation)” value stood at 109 % activation and the pEC50 was 6.12.
Turning to `CC1(c2nnc(-c3ccc4c(c3)N(Cc3ccc(-c5ccc(C(F)(F)F)cn5)cc3)C(=O)[C@@H](N)CS4(=O)=O)o2)COC1` [Example 150, (3R)-3-amino-7-[5-(3-methyloxetan-3-yl)-1,3,4-oxadiazol-2-yl]-1,1-dioxo-5-[[4-[5-(trifluoromethyl)-2-pyridyl]phenyl]methyl]-2,3-dihydro-1λ^6,5-benzothiazepin-4-one], in the test with primary human T-cells [1], the “Emax IL2 (% activation)” value amounted to 35 % activation and the pEC50 is less than 5.00. In the test with primary human T-cells [2], the “Emax proliferation (% activation)” value amounted to 79 % activation and the pEC50 is 6.18.
As for `Cn1ccc(-c2ccc(CN3C(=O)[C@@H](N)CS(=O)(=O)c4cc(F)c(-c5nnc(C(C)(C)C)o5)cc43)cc2)n1` [Example 1, (3R)-3-amino-7-(5-tert-butyl-1,3,4-oxadiazol-2-yl)-8-fluoro-5-[[4-(1-methylpyrazol-3-yl)phenyl]methyl]-1,1-dioxo-2,3-dihydro-1λ^6,5-benzothiazepin-4-one], in the test with primary human T-cells [1], the “Emax IL2 (% activation)” value was 91 % activation and the pEC50 was 5.88. In the test on primary human T-cells [2], the “Emax proliferation (% activation)” value amounted to 73 % activation and the pEC50 was 6.07.
The like results for `N#CC1CN(c2nnc(-c3ccc4c(c3)N(Cc3ccc(-c5noc(C(F)(F)F)n5)cc3)C(=O)[C@@H](N)CS4(=O)=O)o2)CCO1` (stereo partly drawn) [Example 163, 4-[5-[(3R)-3-amino-1,1,4-trioxo-5-[[4-[5-(trifluoromethyl)-1,2,4-oxadiazol-3-yl]phenyl]methyl]-2,3-dihydro-1λ^6,5-benzothiazepin-7-yl]-1,3,4-oxadiazol-2-yl]morpholine-2-carbonitrile] were, in that order, 152 % activation, 5.62, 106 % activation and 5.19.
The like results for `C[C@@](N)(c1nnc(-c2ccc3c(c2)N(Cc2ccc(-c4noc(C(F)(F)F)n4)cc2)C(=O)[C@@H](N)CS3(=O)=O)o1)C(F)(F)F` [Example 52, (3R)-3-amino-7-[5-[(1R)-1-amino-2,2,2-trifluoro-1-methyl-ethyl]-1,3,4-oxadiazol-2-yl]-1,1-dioxo-5-[[4-[5-(trifluoromethyl)-1,2,4-oxadiazol-3-yl]phenyl]methyl]-2,3-dihydro-1λ^6,5-benzothiazepin-4-one] were, in that order, 164 % activation, 6.19, 126 % activation and 6.71.
Consider `CC(C)(C)c1nnc(-c2ccc3c(c2)N(Cc2ccc(-n4cnc(C(F)(F)F)n4)cc2)C(=O)[C@@H](N)CS3(=O)=O)o1` [Example 91, (3R)-3-amino-7-(5-tert-butyl-1,3,4-oxadiazol-2-yl)-1,1-dioxo-5-[[4-[3-(trifluoromethyl)-1,2,4-triazol-1-yl]phenyl]methyl]-2,3-dihydro-126,5-benzothiazepin-4-one], for which, in the test with primary human T-cells [1], the “Emax IL2 (% activation)” value turned out to be 113 % activation and the pEC50 is 5.44. Further, in the test with primary human T-cells [2], the “Emax proliferation (% activation)” value worked out at 127 % activation and the pEC50 is 6.39.
For `CC(c1nc(-c2ccc(CN3C(=O)[C@@H](N)CS(=O)(=O)c4ccc(-c5nnc(C6(N)CCCCC6)o5)cc43)cc2)no1)C(F)(F)F` (stereo partly drawn) [Example 98, (3R)-3-amino-7-[5-(1-aminocyclohexyl)-1,3,4-oxadiazol-2-yl]-1,1-dioxo-5-[[4-[5-(2,2,2-trifluoro-1-methyl-ethyl)-1,2,4-oxadiazol-3-yl]phenyl]methyl]-2,3-dihydro-1λ^6,5-benzothiazepin-4-one] the same measures were 97 % activation, 5.86, 97 % activation and 5.74.
Consider `N[C@H]1CS(=O)(=O)c2ccc(-c3noc(-c4cccnc4C(F)(F)F)n3)cc2N(Cc2ccc(-c3noc(C4CC4)n3)cc2)C1=O` [Example 87, (3R)-3-amino-5-[[4-(5-cyclopropyl-1,2,4-oxadiazol-3-yl)phenyl]methyl]-1,1-dioxo-7-[5-[2-(trifluoromethyl)-3-pyridyl]-1,2,4-oxadiazol-3-yl]-2,3-dihydro-1λ^6,5-benzothiazepin-4-one], for which, in the test on primary human T-cells [1], the “Emax IL2 (% activation)” value turned out to be 16 % activation and the pEC50 is less than 5.00. In the test with primary human T-cells [2], the “Emax proliferation (% activation)” value is recorded as 106 % activation and the pEC50 is 5.44.
For `N[C@H]1CS(=O)(=O)c2ccc(-c3nnc(C4(C5CC5)CCCO4)o3)cc2N(Cc2ccc(-c3nnc(C(F)(F)F)o3)cc2)C1=O` (stereo partly drawn) [Example 97, (3R)-3-amino-7-[5-(2-cyclopropyltetra-hydrofuran-2-yl)-1,3,4-oxadiazol-2-yl]-1,1-dioxo-5-[[4-[5-(trifluoromethyl)-1,3,4-oxadiazol-2-yl]phenyl]methyl]-2,3-dihydro-1λ6,5-benzothiazepin-4-one] the same measures were 115 % activation, 5.20, 96 % activation and 6.43.
In the case of `N[C@H]1CS(=O)(=O)c2ccc(-c3noc(-c4cccnc4Cl)n3)cc2N(Cc2ccc(-c3noc(C4CC4)n3)cc2)C1=O` [Example 85, (3R)-3-amino-7-[5-(2-chloro-3-pyridyl)-1,2,4-oxadiazol-3-yl]-5-[[4-(5-cyclopropyl-1,2,4-oxadiazol-3-yl)phenyl]methyl]-1,1-dioxo-2,3-dihydro-1λ^6,5-benzothiazepin-4-one], in the test on primary human T-cells [1], the “Emax IL2 (% activation)” value was determined as 4 % activation and the pEC50 was less than 5.00. Also, in the test with primary human T-cells [2], the “Emax proliferation (% activation)” value was 62 % activation and the pEC50 is 5.09.
Take `Cc1noc(-c2ccc(CN3C(=O)[C@@H](N)CS(=O)(=O)c4ccc(-c5nnc(C(C)(C)C)o5)cc43)cc2)n1` [Example 20, (3R)-3-amino-7-(5-tert-butyl-1,3,4-oxadiazol-2-yl)-5-[[4-(3-methyl-1,2,4-oxadiazol-5-yl)phenyl]methyl]-1,1-dioxo-2,3-dihydro-1λ^6,5-benzothiazepin-4-one]: in the test on primary human T-cells [1], the “Emax IL2 (% activation)” value is listed as 82 % activation and the pEC50 was 5.12. In the test with primary human T-cells [2], the “Emax proliferation (% activation)” value was 82 % activation and the pEC50 is 5.62.
For the compound `COC(F)(c1nnc(-c2ccc3c(c2)N(Cc2ccc(-c4nnc(C5CC5)o4)cc2)C(=O)[C@@H](N)CS3(=O)=O)o1)C(F)(F)F` (stereo partly shown) [Example 65], in the test on primary human T-cells [1], the “Emax IL2 (% activation)” value is recorded as 92 % activation and the pEC50 was 5.85. Also, in the test with primary human T-cells [2], the “Emax proliferation (% activation)” value is 102 % activation and the pEC50 is 6.17.
